# Results published in patent publication US20060069132A1, “Azolecarboxamide herbicides” (priority 2004, published 2006).
# Assays:
# lambsquarters = assay: Test B pre-/postemergence herbicide test; assay type: in vivo, Chenopodium album
# Procedure, shortened: (§1)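 Herbicidal effect was judged by eye on a 0–100 scale after plants stood 13 to 15 days in the greenhouse following pre- or postemergence treatment with surfactant-containing formulations.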
# cocklebur = assay: Test B pre-/postemergence herbicide test; assay type: in vivo, Xanthium strumarium
# Procedure, shortened: (§2)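 Test chemicals in a non-phytotoxic solvent mixture with surfactant were applied preemergence to seeded species and postemergence to plants 2-18 cm tall (1- to 4-leaf stage); rice and barnyardgrass were also tested in a flooded paddy at the 2-leaf stage. Visual rating versus controls after 13-15 days in greenhouse, scale 0 (no effect) to 100 (complete control).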
# velvetleaf [1] = assay: Test B pre-/postemergence herbicide test; assay type: in vivo, Abutilon theophrasti
# Procedure, shortened: as §1
# barnyardgrass [2] = assay: Test A pre-/postemergence herbicide test; assay type: in vivo, Echinochloa crus-galli; settings: for Plant response rating, Barnyardgrass: Postemergence; for Barnyardgrass plant response rating: Preemergence
# Procedure, shortened: (§3)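 Sandy loam soil given preemergence directed spray; plants at 2 to 10 cm, one- to two-leaf stage, sprayed to runoff postemergence, compounds in non-phytotoxic solvent with surfactant. Injury rated visually versus untreated controls after about ten greenhouse days, 0 (no effect) to 100 (complete control); dash means not tested.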
# blackgrass = assay: Test B postemergence herbicide test; assay type: in vivo, Alopecurus myosuroides; settings: scale 0 (no effect) to 100 (complete control); for Plant response rating, Blackgrass: 500 g ai/ha, visual rating after 13 to 15 days; for Blackgrass plant response rating: 125 g ai/ha
# Procedure, shortened: (§4)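 Paddy species grown to the 2-leaf stage under flooding; blackgrass sprayed postemergence at 2–18 cm (1- to 4-leaf stage). Plants kept in a greenhouse for 13 to 15 days, then visually rated against controls on 0 (no effect) to 100 (complete control).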
# velvetleaf [3] = assay: Test A pre-/postemergence herbicide test; assay type: in vivo, Abutilon theophrasti; settings: for Plant response rating, Velvetleaf: Postemergence; for Velvetleaf plant response rating: Preemergence
# Procedure, shortened: as §3
# giant foxtail [4] = assay: Test B pre-/postemergence herbicide test; assay type: in vivo, Setaria faberi
# Procedure, shortened: as §1
# barnyardgrass [5] = assay: Test B pre-/postemergence herbicide test; assay type: in vivo, Echinochloa crus-galli
# Procedure, shortened: as §2
# wheat = assay: Test B postemergence herbicide test; assay type: in vivo, Triticum aestivum; set-up: key to Wheat plant response rating: 0 = no effect, 100 = complete control; settings: scale 0 (no effect) to 100 (complete control); for Plant response rating, Wheat: Postemergence, 500 g ai/ha, visual rating after 13 to 15 days
# Procedure, shortened: (§5)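 Postemergence plants were sprayed with formulated test chemicals at 2 to 18 cm height (1- to 4-leaf stage); paddy species were grown to the 2-leaf stage. After 13 to 15 days in a greenhouse, injury was rated visually against untreated controls on a 0–100 scale (0 = no effect, 100 = complete control).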
# rice = assay: Test B flooded paddy test; assay type: in vivo, Oryza sativa; settings: 1000 g ai/ha, visual rating, scale 0 to 100 (0 no effect, 100 complete control), 13 to 15 days
# Procedure, shortened: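 Treated at 2-leaf (paddy) or 1–4-leaf, 2–18 cm (postemergence); greenhouse 13–15 d; visual score vs control, 0 none to 100 complete control; dash = not tested.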
# Surinam grass = assay: Test B pre-/postemergence herbicide test; assay type: in vivo, Urochloa decumbens
# Procedure, shortened: as §1
# redroot pigweed = assay: Test A pre-/postemergence herbicide test; assay type: in vivo, Amaranthus retroflexus; settings: for Plant response rating, Pigweed: Postemergence; for Pigweed plant response rating: Preemergence
# Procedure, shortened: as §3
# morningglory [6] = assay: Test A pre-/postemergence herbicide test; assay type: in vivo, Ipomoea spp.; settings: for Plant response rating, Morningglory: Postemergence; for Morningglory plant response rating: Preemergence
# Procedure, shortened: as §3
# giant foxtail [7] = assay: Test A pre-/postemergence herbicide test; assay type: in vivo, Setaria faberi; settings: for Plant response rating, Foxtail, Giant: Postemergence; for Foxtail, Giant plant response rating: Preemergence
# Procedure, shortened: as §3
# large crabgrass [8] = assay: Test B pre-/postemergence herbicide test; assay type: in vivo, Digitaria sanguinalis
# Procedure, shortened: as §1
# ducksalad = assay: Test B flooded paddy test; assay type: in vivo, Heteranthera limosa; settings: 1000 g ai/ha, visual rating, scale 0 to 100 (0 no effect, 100 complete control), 13 to 15 days
# Procedure, shortened: as §4
# wild oat = assay: Test B postemergence herbicide test; assay type: in vivo, Avena fatua; settings: scale 0 (no effect) to 100 (complete control); for Plant response rating, Oat, Wild: 500 g ai/ha, visual rating after 13 to 15 days; for Oat, Wild plant response rating: 125 g ai/ha
# Procedure, shortened: as §5
# barnyardgrass [9] = assay: Test B flooded paddy test; assay type: in vivo, Echinochloa crus-galli; settings: 1000 g ai/ha, visual rating, scale 0 to 100 (0 no effect, 100 complete control), 13 to 15 days
# Procedure, shortened: as §4
# corn = assay: Test B pre-/postemergence herbicide test; assay type: in vivo, Zea mays; settings: for Corn plant response rating: Preemergence, 500 g ai/ha, scale 0 to 100
# Procedure, shortened: as §1
# large crabgrass [10] = assay: Test A pre-/postemergence herbicide test; assay type: in vivo, Digitaria sanguinalis; settings: for Plant response rating, Crabgrass, Large: Postemergence; for Crabgrass, Large plant response rating: Preemergence
# Procedure, shortened: as §3
# morningglory [11] = assay: Test B pre-/postemergence herbicide test; assay type: in vivo, Ipomoea coccinea
# Procedure, shortened: as §2
# [12] = tested on: small flower umbrella sedge; assay: Test B flooded paddy test; assay type: in vivo, Cyperus difformis; settings: 1000 g ai/ha, visual rating, scale 0 to 100 (0 no effect, 100 complete control), 13 to 15 days
# Procedure, shortened: as §4
# pigweed = assay: Test B pre-/postemergence herbicide test; assay type: in vivo, Amaranthus retroflexus
# Procedure, shortened: as §1
# [13] = Postemergence, 500 g ai/ha, visual rating after 13 to 15 days, scale 0 (no effect) to 100 (complete control)
# [14] = postemergence, 125 g ai/ha, visual rating, scale 0 (no effect) to 100 (complete control)
# [15] = preemergence, 125 g ai/ha, 0 to 100 scale, 0 is no effect, 100 is complete control
# [16] = Preemergence, 500 g ai/ha, scale 0 to 100
# [17] = 500 g ai/ha, 0 to 100 scale, 0 no effect, 100 complete control
# [18] = 2000 g ai/ha, 0 to 100 scale, 0 no effect, 100 complete control
# [19] = 500 g ai/ha, visual rating, 0 to 100 scale (0 no effect, 100 complete control)
# [20] = Postemergence, 125 g ai/ha, scale 0 (no effect) to 100 (complete control)
smiles,measurement,setting,value
C=Cn1nc(C(C)(C)C)cc1C(=O)Nc1cccc(C(=O)OCC)c1 [Compound 78],"Plant response rating, Lambsquarters",lambsquarters; [13],80
same,Lambsquarters plant response rating,lambsquarters; [14],70
same,"Plant response rating, Lambsquarters",lambsquarters; [15],0
same,"Plant response rating, Cocklebur",cocklebur; [13],100
same,Cocklebur plant response rating,cocklebur; [16],0
same,Cocklebur plant response rating,cocklebur; [14],80
same,"Plant response rating, Cocklebur",cocklebur; [15],0
same,"Plant response rating, Velvetleaf",velvetleaf [1]; [13],80
same,Velvetleaf plant response rating,velvetleaf [1]; [14],70
same,"Plant response rating, Velvetleaf",velvetleaf [1]; [15],10
same,"Plant response rating, Barnyardgrass",barnyardgrass [2]; [17],30
same,"Plant response rating, Barnyardgrass",barnyardgrass [2]; [18],40
same,Barnyardgrass plant response rating,barnyardgrass [2]; [19],20
same,Barnyardgrass plant response rating,barnyardgrass [2]; [18],45
same,"Plant response rating, Blackgrass",blackgrass; Postemergence,30
same,Blackgrass plant response rating,"blackgrass; postemergence, visual rating",20
same,"Plant response rating, Velvetleaf",velvetleaf [3]; [18],50
same,Velvetleaf plant response rating,velvetleaf [3]; [19],30
same,Velvetleaf plant response rating,"velvetleaf [3]; 2000 g ai/ha, visual rating, 0 to 100 scale (0 no effect, 100 complete control)",50
same,"Plant response rating, Foxtail, Giant",giant foxtail [4]; [13],30
same,"Foxtail, Giant plant response rating",giant foxtail [4]; [16],30
same,"Foxtail, Giant plant response rating",giant foxtail [4]; [14],30
same,"Plant response rating, Foxtail, Giant",giant foxtail [4]; [15],10
same,"Plant response rating, Barnyardgrass",barnyardgrass [5]; [13],30
same,Barnyardgrass plant response rating,barnyardgrass [5]; [16],0
same,Barnyardgrass plant response rating,barnyardgrass [5]; [14],30
same,"Plant response rating, Barnyardgrass",barnyardgrass [5]; [15],0
same,"Plant response rating, Wheat",wheat,30
same,Wheat plant response rating,"wheat; postemergence, 125 g ai/ha, visual rating",30
same,Rice plant response rating,rice,40
same,"Plant response rating, Surinam Grass",Surinam grass; [13],20
same,Surinam Grass plant response rating,Surinam grass; [14],20
same,"Plant response rating, Surinam Grass",Surinam grass; [15],0
same,"Plant response rating, Pigweed",redroot pigweed; [17],85
same,"Plant response rating, Pigweed",redroot pigweed; [18],90
same,Pigweed plant response rating,redroot pigweed; [19],80
same,Pigweed plant response rating,redroot pigweed; [18],90
same,"Plant response rating, Morningglory",morningglory [6]; [17],15
same,"Plant response rating, Morningglory",morningglory [6]; [18],25
same,Morningglory plant response rating,morningglory [6]; [19],25
same,Morningglory plant response rating,morningglory [6]; [18],40
same,"Plant response rating, Foxtail, Giant",giant foxtail [7]; [17],20
same,"Plant response rating, Foxtail, Giant",giant foxtail [7]; [18],60
same,"Foxtail, Giant plant response rating",giant foxtail [7]; [19],55
same,"Foxtail, Giant plant response rating",giant foxtail [7]; [18],70
same,"Plant response rating, Crabgrass, Large",large crabgrass [8]; [13],30
same,"Crabgrass, Large plant response rating",large crabgrass [8]; [16],10
same,"Crabgrass, Large plant response rating",large crabgrass [8]; [14],20
same,"Plant response rating, Crabgrass, Large",large crabgrass [8]; [15],0
same,Ducksalad plant response rating,ducksalad,30
same,"Plant response rating, Oat, Wild",wild oat; Postemergence,20
same,"Oat, Wild plant response rating","wild oat; postemergence, visual rating",10
same,Barnyardgrass plant response rating,barnyardgrass [9],30
same,Corn plant response rating,corn,0
same,"Plant response rating, Corn",corn; [15],0
same,"Plant response rating, Crabgrass, Large",large crabgrass [10]; [17],20
same,"Plant response rating, Crabgrass, Large",large crabgrass [10]; [18],35
same,"Crabgrass, Large plant response rating",large crabgrass [10]; [19],60
same,"Crabgrass, Large plant response rating",large crabgrass [10]; [18],90
same,"Plant response rating, Morningglory",morningglory [11]; [15],0
same,"Sedge, Umbrella plant response rating",[12],80
same,"Plant response rating, Pigweed",pigweed; [13],90
same,Pigweed plant response rating,pigweed; [14],80
same,"Plant response rating, Pigweed",pigweed; [15],0
CCCCn1nc(C(C)(C)C)cc1C(=O)Nc1cccc(C(=O)N(CC)CC)c1 [Compound 40],Lambsquarters plant response rating,lambsquarters; [20],40
same,"Plant response rating, Lambsquarters",lambsquarters; [13],70
same,Lambsquarters plant response rating,lambsquarters; [16],80
same,"Plant response rating, Lambsquarters",lambsquarters; [15],40
same,Cocklebur plant response rating,cocklebur; [20],10
same,"Plant response rating, Cocklebur",cocklebur; [13],50
same,Cocklebur plant response rating,cocklebur; [16],0
same,"Plant response rating, Velvetleaf",velvetleaf [1]; [13],20
same,Velvetleaf plant response rating,velvetleaf [1]; [16],10
same,"Plant response rating, Velvetleaf",velvetleaf [1]; [15],0
same,"Plant response rating, Barnyardgrass",barnyardgrass [2]; [17],0
same,"Plant response rating, Barnyardgrass",barnyardgrass [2]; [18],0
same,Barnyardgrass plant response rating,barnyardgrass [2]; [19],0
same,Barnyardgrass plant response rating,barnyardgrass [2]; [18],15
same,Blackgrass plant response rating,blackgrass; Postemergence,10
same,"Plant response rating, Blackgrass",blackgrass; Postemergence,20
same,"Plant response rating, Velvetleaf",velvetleaf [3]; [17],0
same,"Plant response rating, Velvetleaf",velvetleaf [3]; [18],0
same,Velvetleaf plant response rating,velvetleaf [3]; [19],5
same,Velvetleaf plant response rating,velvetleaf [3]; [18],15
same,"Foxtail, Giant plant response rating",giant foxtail [4]; [20],0
same,"Plant response rating, Foxtail, Giant",giant foxtail [4]; [13],20
same,"Foxtail, Giant plant response rating",giant foxtail [4]; [16],10
same,"Plant response rating, Foxtail, Giant",giant foxtail [4]; [15],0
same,Barnyardgrass plant response rating,barnyardgrass [5]; [20],10
same,"Plant response rating, Barnyardgrass",barnyardgrass [5]; [13],10
same,Barnyardgrass plant response rating,barnyardgrass [5]; [16],40
same,"Plant response rating, Wheat",wheat,30
same,Rice plant response rating,rice,0
same,"Plant response rating, Surinam Grass",Surinam grass; [13],20
same,Surinam Grass plant response rating,Surinam grass; [16],10
same,"Plant response rating, Surinam Grass",Surinam grass; [15],0
same,"Plant response rating, Pigweed",redroot pigweed; [17],0
same,"Plant response rating, Pigweed",redroot pigweed; [18],0
same,Pigweed plant response rating,redroot pigweed; [19],0
same,Pigweed plant response rating,redroot pigweed; [18],15
same,"Plant response rating, Morningglory",morningglory [6]; [17],0
same,"Plant response rating, Morningglory",morningglory [6]; [18],0
same,Morningglory plant response rating,morningglory [6]; [19],5
same,Morningglory plant response rating,morningglory [6]; [18],10
same,"Plant response rating, Foxtail, Giant",giant foxtail [7]; [17],0
same,"Plant response rating, Foxtail, Giant",giant foxtail [7]; [18],0
same,"Foxtail, Giant plant response rating",giant foxtail [7]; [19],0
same,"Foxtail, Giant plant response rating",giant foxtail [7]; [18],5
same,"Crabgrass, Large plant response rating",large crabgrass [8]; [20],10
same,"Plant response rating, Crabgrass, Large",large crabgrass [8]; [13],20
same,"Crabgrass, Large plant response rating",large crabgrass [8]; [16],70
same,Ducksalad plant response rating,ducksalad,0
same,"Oat, Wild plant response rating",wild oat; Postemergence,0
same,"Plant response rating, Oat, Wild",wild oat; Postemergence,10
same,Barnyardgrass plant response rating,barnyardgrass [9],0
same,Corn plant response rating,corn,0
same,"Plant response rating, Crabgrass, Large",large crabgrass [10]; [17],15
same,"Plant response rating, Crabgrass, Large",large crabgrass [10]; [18],0
same,"Crabgrass, Large plant response rating",large crabgrass [10]; [19],5
same,"Crabgrass, Large plant response rating",large crabgrass [10]; [18],15
same,Morningglory plant response rating,morningglory [11]; [16],10
same,"Sedge, Umbrella plant response rating",[12],30
same,"Plant response rating, Pigweed",pigweed; [13],60
same,Pigweed plant response rating,pigweed; [16],60
same,"Plant response rating, Pigweed",pigweed; [15],30
